Results reported in patent publication US20090053695A1, “Gene Marker and Use Thereof” (priority 2004, published 2009).

System: gene markers (Tap1 or Ctss)
Test: Temporal changes in blood expression levels of Tap1 and Ctss after heart transplantation (Example 5, FIG. 4)
Type: in vivo, rat
Details: s.c. daily dosing as in Example 2; blood mRNA to post-transplantation day 4, relative to pre-transplantation level (as 1)
Experimental: To precisely examine changes in the expression level of each of the genes selected here, their mRNAs were quantified. For Irf1, Psmb9, Nos2, and Pim1, the mRNA was quantified by using 25 ng of extracted mRNA together with each primer and probe shown in Table 1, synthesizing cDNA with TaqMan Reverse Transcription Reagents (manufactured by Applied Biosystems) under the conditions shown in Table 1, on an ABI PRISM 7900HT Detection System (manufactured by Applied Biosystems), and using β-actin as an internal control. For Tap1 and Ctss, mRNA was quantified by using 25 ng of extracted mRNA together with each primer and probe (final concentrations: […] each primer, 250 nM TaqMan probe; TaqMan Gene Expression Assays Rn00709612_ml (Tap1) or Rn00569036_ml (Ctss), Applied Biosystems), synthesizing cDNA with TaqMan Reverse Transcription Reagents (manufactured by Applied Biosystems) on an ABI PRISM 7900HT Detection System (manufactured by Applied Biosystems), and using β-actin as an internal control. […]

C=CC[C@@H]1/C=C(\C)C[C@H](C)C[C@H](OC)[C@H]2O[C@@](O)(C(=O)C(=O)N3CCCC[C@H]3C(=O)O[C@H](/C(C)=C/[C@@H]3CC[C@@H](O)[C@H](OC)C3)[C@H](C)[C@@H](O)CC1=O)[C@H](C)C[C@@H]2OC [tacrolimus]
expression levels of the gene markers Tap1 and Ctss compared with the rejection group: suppressed compared with the rejection group, to the level similar to or lower than that of the non-rejection group
